Source: patent publication US9044013B2, “Glyoxime derivative and pest control agent” (KUMIAI CHEMICAL INDUSTRY CO., LTD., priority 2011, dated 2015)

Tested on: Nilaparvata lugens Stál (brown rice planthopper)
Test: Insecticidal action test for Nilaparvata lugens Stál (brown rice planthopper) (immersion test)
Assay type: in vivo
Settings: 144 h, 500 ppm active ingredient (wettable powder diluted with water), sprouting unhulled rice immersed, 10 2-age larvae, 25° C., after 6 days, no repetition, read-out: insect mortality
Experimental: Insecticidal action test for Nilaparvata lugens Stál (Brown Rice Planthopper) (Immersion Test)
A wettable powder prepared based on Formulation Example 2 was diluted with water so that the concentration of active ingredient became 500 ppm. In the diluted liquid was immersed sprouting unhulled rice. The immersed rice was placed in a plastic cup of 60 ml. Into the plastic cup were released 10 2-age larvae of Nilaparvata lugens Stál (brown rice planthopper). The cup was covered with a cap and placed in a thermostat of 25° C. After 6 days, the number of living insects was counted and the mortality of insect was calculated using the calculation formula of Mathematical Expression 1. This test was conducted with no repetition. Insect mortality(%)=[1−(number of living insects)/(number of tested insects)]×100 [Mathematical Expression 1]
The compound Nos. of the compounds which gave an insect mortality of 90% or higher in the above test, are shown below.

Row | SMILES | mortality at 500 ppm
1 | CC(C)ON=C(N)C(C#N)=NOC(C)C [1-096, 3-amino-2,3-bis(isopropoxyimino)propionitrile] | ≥ 90%
2 | CC(C)ON=C(C#N)C(N)=NO [1-004, 3-amino-3-hydroxyimino-2-isopropoxyiminopropionitrile] | ≥ 90%
3 | CCCON=C(N)C(C#N)=NOCCC [1-072, 3-Amino-2,3-Bis(Propoxyimino)Propionitrile] | ≥ 90%
4 | CCCON=C(N)C(C#N)=NOC(C)C [1-073, 3-amino-2-isopropoxyimino-3-propoxyiminopropionitrile] | ≥ 90%
